Test results: article PMC10518255, “A first-in-class pan-lysyl oxidase inhibitor impairs stromal remodeling and enhances gemcitabine response and survival in pancreatic cancer” (Nature Cancer, 2023)
“And” between values parts separate entries of the source, which are not always exact repeats. Equal values may be shown once.

What was measured:
Type in all cases: in vivo, mouse
[1] = tested on: TKCC10 human PDX tumors; assay: TKCC10 human model, FITC-dextran perfusion (Extended Data Fig. 5f); conditions: for FITC-dextran (10 kDa) signal quantification: Extended Data 5F, human PDXs, individual FOV
Experimental: (§1) Subcutaneous PDX studies were performed by implanting early passage PDX pieces (~4 mm^3) or TKCC10 CCs (1.5 × 10^6 cells per mouse in 100 μl PBS/Matrigel 1:1) into female (PDX) or male (TKCC10) 8-week-old immunocompromised nude Balb/c-Fox1nuAusb mice subcutaneously on the left flank. For the duration of the study, mice were kept in conventional caging with environmental enrichment, access to standard chow, water ad libitum and 12-h light–dark cycle at ambient temperature and humidity. Treatment began when tumors reached 150 mm^3, where each mouse was randomized into a treatment group and administered gemcitabine HCl (100 mg kg^−1 in saline) (Jomar Life Research) or vehicle control (0.9% saline) by i.p. injection twice weekly on day 2 and 4 of the treatment cycle until an ethical end point was reached. These included maximal tumor mass ≥10% of body weight, weight loss ≥20% from maximum body weight or tumor interfering with mobility and affecting access to food and water. […] Tumor size was monitored every second day by calipers. Tumor volume was calculated using the formula (length × width^2)/2. […]
FITC-dextran (10 kDa) was administered at 40 mg ml^−1 in saline via tail vain 2 h before culling. […] Images were quantified using Fiji Software for Integrated Density Signal.
(§2) Extended Data Fig. 5 PXS-5505 in combination with gemcitabine in vivo. a. […] Signal is defined as the enzyme activity in the aorta, while noise is measured in the presence of a high concentration (300 µM) BAPN to abolish any lysyl oxidase family activity. […] FITC-dextran (molecular weight: 10 kDa) signal quantification from KPC tumor end point from each treatment group (vehicle n = 3 biologically independent animals, PXS-5505 n = 5 biologically independent animals, Gem n = 5 biologically independent animals, PXS-5505 + Gem n = 5 biologically independent animals). […] P-values determined by Welchs t-test. […] Quantification of red birefringent (mature) collagen fibers from human PDXs at end point after 3 cycles of treatment, treated as indicated. […] P values determined by Welchs t-test. g. […]

[2] = tested on: TKCC10 human PDX tumors; assay: TKCC10 human model, bulk modulus by unconfined compression (Extended Data Fig. 5e); design: key to Bulk modulus (stiffness) by unconfined compression testing: bulk elastic modulus in kPa; conditions: for Bulk modulus (stiffness) by unconfined compression testing: Extended Data 5E, endpoint human PDX tumours, individual animals
Experimental: Unconfined compression of in vivo tissue samples was carried out on 2–3-mm cross-sectional slices using a TA Instruments Dynamic Hybrid Rheometer (DHR-3, TA Instruments). Tissue samples were placed between upper and lower parallel plate geometries. A constant linear compressive rate of 5 µm s^−1 was applied to the samples and axial force (N) and gap (mm) were collected every 0.01 s. Data were processed and a stress–strain curve for each replicate was obtained. Bulk elastic modulus (kPa) was obtained as the gradient of the linear region of the stress–strain curve corrected for cross-sectional area of sample. Data points represent individual biological replicates.
Subcutaneous PDX studies were performed by implanting early passage PDX pieces (~4 mm^3) or TKCC10 CCs (1.5 × 10^6 cells per mouse in 100 μl PBS/Matrigel 1:1) into female (PDX) or male (TKCC10) 8-week-old immunocompromised nude Balb/c-Fox1nuAusb mice subcutaneously on the left flank. For the duration of the study, mice were kept in conventional caging with environmental enrichment, access to standard chow, water ad libitum and 12-h light–dark cycle at ambient temperature and humidity. […] Tumor size was monitored every second day by calipers. Tumor volume was calculated using the formula (length × width^2)/2. […]
as §2

[3] = tested on: TKCC10 human PDX tumors; assay: TKCC10 human model, picrosirius red birefringence after three rounds of therapy (Extended Data Fig. 5d); conditions: for Quantification of red birefringent (mature) collagen fibres: Extended Data 5D, human PDXs at endpoint after 3 cycles of treatment, individual replicates
Experimental: as §1, with “water. Animals with non-tumor-related complications that led to a premature end point were censored.” for “water.”
Extended Data Fig. 5 PXS-5505 in combination with gemcitabine in vivo. a. […] Signal is defined as the enzyme activity in the aorta, while noise is measured in the presence of a high concentration (300 µM) BAPN to abolish any lysyl oxidase family activity. […] FITC-dextran (molecular weight: 10 kDa) signal quantification from KPC tumor end point from each treatment group (vehicle n = 3 biologically independent animals, PXS-5505 n = 5 biologically independent animals, Gem n = 5 biologically independent animals, PXS-5505 + Gem n = 5 biologically independent animals). […] P-values determined by Welchs t-test. […] Quantification of red birefringent (mature) collagen fibers from human PDXs at end point after 3 cycles of treatment, treated as indicated. […] P values determined by Welchs t-test. g. […] Quantification of green birefringent (nascent) collagen fibers from human PDXs at end point, treated as indicated. […]

[4] = TKCC10 model, three rounds of therapy

In the case of Nc1ccn([C@@H]2O[C@H](CO)[C@@H](O)C2(F)F)c(=O)n1 [Gem, gemcitabine], the “FITC-dextran (10 kDa) signal quantification” value [1] is reported as 94281 and 105741 and 104921 and 268246 and 141904 and 94336 and 85811 and 123546 and 103971 and 163288 and 111668 and 293663 and 289768 and 460793 and 155579 and 95059 and 92172 and 111389 and 85819 and 99312, the “FITC-dextran signal (tumor perfusion)” value ([1]; TKCC10 model) is reported as “significantly reduced FITC signal” and the “Bulk modulus (stiffness) by unconfined compression testing” value [2] is reported as 110.51 and 99.1 and 103.39 and 48.75 and 58.11. The tumor bulk stiffness [2, 4] was “significant increase in tumor bulk stiffness”, the “Quantification of red birefringent (mature) collagen fibres” value [3] was 806 and 284 and 128 and 654 and 1145 and 167 and 291 and 56 and 399 and 263 and 1177 and 403 and 843 and 2660 and 1208 and 745 and 4462 and 5568 and 5319 and 1528 and 2340 and 4185 and 3205 and 2211 and 5904 and the “tumor fibrillar collagen content (picrosirius red birefringence)” value [3, 4] was “increases fibrillar collagen I content”.

In the case of Cl.Cl.NC/C=C(\F)CS(=O)(=O)c1cccc2cccnc12.O [PXS-5505, (Z)-3-fluoro-4-(quinolin-8-ylsulfonyl)but-2-en-1-amine dihydrochloride monohydrate], the “FITC-dextran (10 kDa) signal quantification” value [1] is reported as 217149 and 705678 and 861620 and 155219 and 311738 and 1148786 and 651132 and 524503 and 645010 and 362873 and 336536 and 501004 and 447832 and 108773 and 210759 and 520769 and 406359 and 125675 and 423935 and 547504, the “Bulk modulus (stiffness) by unconfined compression testing” value [2] is reported as 8.16 and 16.78 and 14.19 and 5.55 and 12.49 and the “Quantification of red birefringent (mature) collagen fibres” value [3] is reported as 965 and 112 and 188 and 2 and 295 and 380 and 3894 and 62 and 792 and 254 and 25 and 1015 and 164 and 72 and 282 and 10 and 83 (2×) and 9 and 15 and 1307 and 917 and 737 and 1467 and 503.
